In ChEMBL document CHEMBL1629538 (J Med Chem, 2010):
Activity calls are given as the source filed them. The calls are words filed in the database; no cut-off is given here. Bridge positions count the residues as written; N and C are the ends. Peptide text beside a SMILES is read from it. * marks the point of attachment. Bz = O=C(c1ccccc1)*

Columns and labels:
[1] = target: Nociceptin receptor (Mus musculus) (UniProt P35377); assay: Antagonist activity at NOR in mouse Neuro-2a cells assessed as inhibition of nociceptin-induced ERK phosphorylation at 100 nM administered for 15 mins before nociceptin challenge by Alphascreen Surefire assay; type: functional, cell-based
Chain of Nociceptin receptor (Mus musculus) (P35377 whole entry): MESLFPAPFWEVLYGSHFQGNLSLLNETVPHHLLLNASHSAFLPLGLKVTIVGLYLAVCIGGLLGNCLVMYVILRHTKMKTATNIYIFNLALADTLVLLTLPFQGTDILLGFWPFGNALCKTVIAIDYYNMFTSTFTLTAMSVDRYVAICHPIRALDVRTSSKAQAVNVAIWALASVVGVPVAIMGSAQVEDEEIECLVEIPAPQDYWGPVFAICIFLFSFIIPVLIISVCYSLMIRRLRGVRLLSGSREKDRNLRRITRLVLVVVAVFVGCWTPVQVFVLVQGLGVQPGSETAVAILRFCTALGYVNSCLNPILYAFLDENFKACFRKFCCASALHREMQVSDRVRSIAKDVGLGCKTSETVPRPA

Nociceptin receptor [2] = target: T1, Nociceptin receptor (Mus musculus, UniProt P35377); assay: Agonist activity at NOR in mouse Neuro-2a cells assessed as stimulation of ERK phosphorylation after 35 mins post dose by Alphascreen Surefire assay
T1 sequence (P35377 whole entry): as above

[3] = target: Nociceptin receptor (Mus musculus) (UniProt P35377); assay: Agonist activity at NOR in mouse Neuro-2a cells assessed as stimulation of ERK phosphorylation at 1 uM after 35 mins post dose by Alphascreen Surefire assay
[4] = Half life in human serum; type: ADME, cell-free
[5] = Cytotoxicity in human erythrocytes assessed as induction of hemolysis at 100 uM; type: cell-based; details: erythrocyte
[6] = target: Nociceptin receptor (Mus musculus) (UniProt P35377); assay: Agonist activity at NOR in mouse Neuro-2a cells assessed as stimulation of ERK phosphorylation after 35 mins post dose by Alphascreen Surefire assay relative to control
Nociceptin receptor [7] = target: T1, Nociceptin receptor; assay: Antagonist activity at NOR in mouse Neuro-2a cells assessed as inhibition of nociceptin-induced ERK phosphorylation administered for 15 mins before nociceptin challenge by Alphascreen Surefire assay; type: functional, cell-based
Nociceptin receptor [8] = target: T1, Nociceptin receptor; assay: Antagonist activity at NOR in mouse Neuro-2a cells assessed as inhibition of nociceptin-induced ERK phosphorylation administered for 15 mins before nociceptin challenge by competitive inhibition assay; type: functional, cell-based; details: read-out: pA2 (converted)

With `CC(=O)N[C@H](C(=O)N[C@H]1CCCCNC(=O)C[C@@H](C(=O)N[C@H]2CCCCNC(=O)C[C@@H](C(N)=O)NC(=O)[C@H](CC(C)C)NC(=O)[C@H](CCCCN)NC(=O)[C@H](CCCNC(=N)N)NC2=O)NC(=O)[C@H](CCCCN)NC(=O)[C@H](CCCNC(=N)N)NC(=O)[C@H](C)NC1=O)[C@@H](C)O` (Ac-TKARKDKRKLD-NH2; lactam 2-6, 7-11) the inhibition [1] was “inactive”.
For `C[C@@H](O)[C@H](NC(=O)[C@H](Cc1ccccc1)NC(=O)CNC(=O)CNC(=O)[C@@H](N)Cc1ccccc1)C(=O)NCC(=O)N[C@H]1CCCCNC(=O)C[C@@H](C(N)=O)NC(=O)[C@H](CCCCN)NC(=O)[C@H](CCCN=C(N)N)NC(=O)[C@@H]2CC(=O)NCCCC[C@@H](CC(=O)[C@H](CCCCN)NC(=O)[C@H](CCCN=C(N)N)NC1=O)C(=O)N2`, the EC50 (Nociceptin receptor [2]) was 14 nM.
For `CC(C)C[C@H](NC(=O)[C@H](CCCCN)NC(=O)[C@H](CCCNC(=N)N)NC(=O)[C@H](C)NC(=O)[C@H](CO)NC(=O)[C@H](CCCCN)NC(=O)[C@H](CCCNC(=N)N)NC(=O)[C@H](C)NC(=O)CNC(=O)[C@@H](NC(=O)[C@H](Cc1ccc(F)cc1)NC(=O)CNC(=O)CNC(=O)CNC(=O)c1ccccc1)[C@@H](C)O)C(=O)N[C@@H](CCCCN)C(=O)N[C@@H](CC(N)=O)C(=O)N[C@@H](CCC(N)=O)C(N)=O`, the Activity [3] was “inactive”.
With `CC(C)C[C@H](NC(=O)[C@H](CCCCN)NC(=O)[C@H](CCCN=C(N)N)NC(=O)[C@H](C)NC(=O)[C@H](CO)NC(=O)[C@H](CCCCN)NC(=O)[C@H](CCCN=C(N)N)NC(=O)[C@H](C)NC(=O)CNC(=O)[C@@H](NC(=O)[C@H](Cc1ccccc1)NC(=O)CNC(=O)CNC(=O)[C@@H](N)Cc1ccccc1)[C@@H](C)O)C(=O)N[C@@H](C)C(=O)N[C@@H](CC(N)=O)C(=O)N[C@@H](CCC(N)=O)C(=O)O` [NOCICEPTIN] the half-life [4] was 60 min and the Activity [5] was “Non-toxic”.
For `C[C@@H](O)[C@H](NC(=O)[C@H](Cc1ccccc1)NC(=O)CNC(=O)CNC(=O)[C@@H](N)Cc1ccccc1)C(=O)NCC(=O)N[C@H]1CCCCNC(=O)C[C@@H](C(N)=O)NC(=O)[C@H](CCCCN)NC(=O)[C@H](CCCNC(=N)N)NC(=O)[C@@H]2CC(=O)NCCCC[C@@H](CC(=O)[C@H](CCCCN)NC(=O)[C@H](CCCNC(=N)N)NC1=O)C(=O)N2`, the Emax [6] was 92%.
Work on `C[C@@H](O)[C@H](NC(=O)[C@H](Cc1ccccc1)NC(=O)CNC(=O)CNC(=O)[C@@H](N)Cc1ccccc1)C(=O)NCC(=O)N[C@H]1CCCCNC(=O)C[C@@H](C(=O)N[C@@H](CCCN=C(N)N)C(=O)N[C@@H](CCCCN)C(N)=O)NC(=O)[C@H](CO)NC(=O)[C@H](CCCCN)NC(=O)[C@H](CCCN=C(N)N)NC1=O` (H-FGGFTGKRKSDRK-NH2; lactam 7-11) yielded an EC50 (Nociceptin receptor [2]) of 30 nM.
In the case of `C[C@@H](O)[C@H](NC(=O)[C@H](Cc1ccccc1)NC(=O)CNC(=O)CNC(=O)[C@@H](N)Cc1ccccc1)C(=O)NCC(=O)N[C@H]1CCCCNC(=O)C[C@@H](C(=O)N[C@@H](CCCNC(=N)N)C(=O)N[C@@H](CCCCN)C(N)=O)NC(=O)[C@H](CO)NC(=O)[C@H](CCCCN)NC(=O)[C@H](CCCNC(=N)N)NC1=O` (H-FGGFTGKRKSDRK-NH2; lactam 7-11), the Emax [6] is reported as 80%.
`C[C@H](NC(=O)CNC(=O)[C@@H](NC(=O)[C@H](Cc1ccccc1)NC(=O)CNC(=O)CNC(=O)[C@@H](N)Cc1ccccc1)[C@@H](C)O)C(=O)N[C@@H](CCCNC(=N)N)C(=O)N[C@@H](CCCCN)C(=O)N[C@@H](CO)C(=O)N[C@@H](C)C(=O)N[C@@H](CCCNC(=N)N)C(=O)N[C@@H](CCCCN)C(N)=O` gave an Emax [6] of 90%.
Work on `CC(C)C[C@@H]1NC(=O)[C@H](CCCCN)NC(=O)[C@H](CCCN=C(N)N)NC(=O)[C@@H](NC(=O)[C@@H]2CC(=O)NCCCC[C@H](NC(=O)[C@@H](NC(=O)[C@H](Cc3ccccc3)NC(=O)CNC(=O)CNC(=O)CNC(=O)c3ccccc3)[C@@H](C)O)C(=O)N[C@@H](C)C(=O)N[C@@H](CCCN=C(N)N)C(=O)N[C@@H](CCCCN)C(=O)N2)CCCCNC(=O)C[C@@H](C(N)=O)NC1=O` (Bz-GGGFTKARKDKRKLD-NH2; lactam 6-10, 11-15) yielded an IC50 (Nociceptin receptor [7]; read-out: pIC50 (converted)) of over 100 nM.
With `C[C@@H](O)[C@H](NC(=O)[C@H](Cc1ccc(F)cc1)NC(=O)CNC(=O)CNC(=O)CNC(=O)c1ccccc1)C(=O)NCC(=O)N[C@H]1CCCCNC(=O)C[C@@H](C(=O)N[C@@H](CCCNC(=N)N)C(=O)N[C@@H](CCCCN)C(=O)N[C@H]2CCCCNC(=O)C[C@@H](C(N)=O)NC(=O)[C@H](CCC(N)=O)NC(=O)[C@H](CC(N)=O)NC(=O)[C@H](CCCCN)NC2=O)NC(=O)[C@H](CO)NC(=O)[C@H](CCCCN)NC(=O)[C@H](CCCNC(=N)N)NC1=O` the Activity [3] was “inactive”.
`C[C@@H](O)[C@H](NC(=O)[C@H](Cc1ccccc1)NC(=O)CNC(=O)CNC(=O)CNC(=O)c1ccccc1)C(=O)NCC(=O)N[C@H]1CCCCNC(=O)C[C@@H](C(=O)N[C@@H](CCCN=C(N)N)C(=O)N[C@@H](CCCCN)C(=O)N[C@H]2CCCCNC(=O)C[C@@H](C(N)=O)NC(=O)[C@H](CCC(N)=O)NC(=O)[C@H](CC(N)=O)NC(=O)[C@H](CCCCN)NC2=O)NC(=O)[C@H](CO)NC(=O)[C@H](CCCCN)NC(=O)[C@H](CCCN=C(N)N)NC1=O` (Bz-GGGFTGKRKSDRKKKNQD-NH2; lactam 7-11, 14-18) gave an IC50 (Nociceptin receptor [7]; read-out: IC50) of 12 nM.
In the case of `C[C@@H]1NC(=O)[C@@H](NC(=O)[C@H](CCCCN)NC(=O)[C@H](CCCN=C(N)N)NC(=O)[C@@H]2CC(=O)NCCCC[C@H](NC(=O)CNC(=O)[C@@H](NC(=O)[C@H](Cc3ccccc3)NC(=O)CNC(=O)CNC(=O)[C@@H](N)Cc3ccccc3)[C@@H](C)O)C(=O)N[C@@H](CCCN=C(N)N)C(=O)N[C@@H](CCCCN)C(=O)N[C@@H](CO)C(=O)N2)CCCCNC(=O)C[C@@H](C(N)=O)NC(=O)[C@H](CCC(N)=O)NC(=O)[C@H](CC(N)=O)NC1=O`, the half-life [4] is reported as over 360 min and the Activity [5] is reported as “Non-toxic”.
Molecule `CC(C)C[C@H](NC(=O)[C@H](CCCCN)NC(=O)[C@H](CCCN=C(N)N)NC(=O)[C@H](C)NC(=O)[C@H](CO)NC(=O)[C@H](CCCCN)NC(=O)[C@H](CCCN=C(N)N)NC(=O)[C@H](C)NC(=O)CNC(=O)[C@@H](NC(=O)[C@H](Cc1ccc(F)cc1)NC(=O)CNC(=O)CNC(=O)CNCc1ccccc1)[C@@H](C)O)C(=O)N[C@@H](CCCCN)C(=O)N[C@@H](CC(N)=O)C(=O)N[C@@H](CCC(N)=O)C(N)=O` has a pIC50 (Nociceptin receptor [7]; neuro-2a) of 7.49.
`CC(C)C[C@H](NC(=O)[C@H](CCCCN)NC(=O)[C@H](CCCN=C(N)N)NC(=O)[C@H](C)NC(=O)[C@H](CO)NC(=O)[C@H](CCCCN)NC(=O)[C@H](CCCN=C(N)N)NC(=O)[C@H](C)NC(=O)CNC(=O)[C@@H](NC(=O)[C@H](Cc1ccc(F)cc1)NC(=O)CNC(=O)CNC(=O)[C@@H](N)Cc1ccccc1)[C@@H](C)O)C(=O)N[C@@H](CCCCN)C(=O)N[C@@H](CC(N)=O)C(=O)N[C@@H](CCC(N)=O)C(N)=O` gave an EC50 (Nociceptin receptor [2]) of 0.36 nM.
With `CC(C)C[C@@H]1NC(=O)[C@H](CCCCN)NC(=O)[C@H](CCCNC(=N)N)NC(=O)[C@@H](NC(=O)[C@@H]2CC(=O)NCCCC[C@H](NC(=O)[C@@H](NC(=O)[C@H](Cc3ccccc3)NC(=O)CNC(=O)CNC(=O)CNC(=O)c3ccccc3)[C@@H](C)O)C(=O)N[C@@H](C)C(=O)N[C@@H](CCCNC(=N)N)C(=O)N[C@@H](CCCCN)C(=O)N2)CCCCNC(=O)C[C@@H](C(N)=O)NC1=O` (Bz-GGGFTKARKDKRKLD-NH2; lactam 6-10, 11-15) the inhibition [1] was “inactive”.
In the case of `C[C@@H](O)[C@H](NC(=O)[C@H](Cc1ccc(F)cc1)NC(=O)CNC(=O)CNC(=O)[C@@H](N)Cc1ccccc1)C(=O)NCC(=O)N[C@H]1CCCCNC(=O)C[C@@H](C(=O)N[C@@H](CCCN=C(N)N)C(=O)N[C@@H](CCCCN)C(=O)N[C@H]2CCCCNC(=O)C[C@@H](C(N)=O)NC(=O)[C@H](CCC(N)=O)NC(=O)[C@H](CC(N)=O)NC(=O)[C@H](CCCCN)NC2=O)NC(=O)[C@H](CO)NC(=O)[C@H](CCCCN)NC(=O)[C@H](CCCN=C(N)N)NC1=O`, the EC50 (Nociceptin receptor [2]) is reported as 0.04 nM and the EC50 (Nociceptin receptor [2]; neuro-2a) is reported as 0.04 nM.
Work on `C[C@@H](O)[C@H](NC(=O)[C@H](Cc1ccc(F)cc1)NC(=O)CNC(=O)CNC(=O)CNC(=O)c1ccccc1)C(=O)NCC(=O)N[C@H]1CCCCNC(=O)C[C@@H](C(=O)N[C@@H](CCCN=C(N)N)C(=O)N[C@@H](CCCCN)C(=O)N[C@H]2CCCCNC(=O)C[C@@H](C(N)=O)NC(=O)[C@H](CCC(N)=O)NC(=O)[C@H](CC(N)=O)NC(=O)[C@H](CCCCN)NC2=O)NC(=O)[C@H](CO)NC(=O)[C@H](CCCCN)NC(=O)[C@H](CCCN=C(N)N)NC1=O` yielded an IC50 (Nociceptin receptor [7]; read-out: IC50) of 7.5 nM and a Kb (Nociceptin receptor [8]) of 1.95 nM.
`CC(=O)N[C@H](C(=O)N[C@H]1CCCCNC(=O)C[C@@H](C(=O)N[C@H]2CCCCNC(=O)C[C@@H](C(N)=O)NC(=O)[C@H](CC(C)C)NC(=O)[C@H](CCCCN)NC(=O)[C@H](CCCN=C(N)N)NC2=O)NC(=O)[C@H](CCCCN)NC(=O)[C@H](CCCN=C(N)N)NC(=O)[C@H](C)NC1=O)[C@@H](C)O` (Ac-TKARKDKRKLD-NH2; lactam 2-6, 7-11) gave an IC50 (Nociceptin receptor [7]; read-out: pIC50 (converted)) of over 100 nM.
